Data: patent US11661431B2, “Thienopyrrole compounds” (Gilead Sciences, Inc., priority 2021, dated 2023)
Read-outs that look alike come from different tables or passages of the source.

Assays:
[1] = target: TLR8 (Homo sapiens (Human), UniProt Q9NR97); assay: TLR8 human peripheral blood mononuclear cell (PBMC) cell-based assay (Compound A as agonist; TNFα and IL12p40 readout); conditions: TLR8 agonist Compound A at 800 nM, 6 hours, antagonist potency
[2] = target: TLR7 (Homo sapiens (Human), UniProt Q9NYK1); assay: TLR7 human peripheral blood mononuclear cell (PBMC) cell-based assay (GS-986 as agonist; IL-6 and IFNα readout); conditions: TLR7 agonist GS-986 at 400 nM, 6 hours, antagonist potency
Sequence of TLR7 (Q9NYK1 27-1049): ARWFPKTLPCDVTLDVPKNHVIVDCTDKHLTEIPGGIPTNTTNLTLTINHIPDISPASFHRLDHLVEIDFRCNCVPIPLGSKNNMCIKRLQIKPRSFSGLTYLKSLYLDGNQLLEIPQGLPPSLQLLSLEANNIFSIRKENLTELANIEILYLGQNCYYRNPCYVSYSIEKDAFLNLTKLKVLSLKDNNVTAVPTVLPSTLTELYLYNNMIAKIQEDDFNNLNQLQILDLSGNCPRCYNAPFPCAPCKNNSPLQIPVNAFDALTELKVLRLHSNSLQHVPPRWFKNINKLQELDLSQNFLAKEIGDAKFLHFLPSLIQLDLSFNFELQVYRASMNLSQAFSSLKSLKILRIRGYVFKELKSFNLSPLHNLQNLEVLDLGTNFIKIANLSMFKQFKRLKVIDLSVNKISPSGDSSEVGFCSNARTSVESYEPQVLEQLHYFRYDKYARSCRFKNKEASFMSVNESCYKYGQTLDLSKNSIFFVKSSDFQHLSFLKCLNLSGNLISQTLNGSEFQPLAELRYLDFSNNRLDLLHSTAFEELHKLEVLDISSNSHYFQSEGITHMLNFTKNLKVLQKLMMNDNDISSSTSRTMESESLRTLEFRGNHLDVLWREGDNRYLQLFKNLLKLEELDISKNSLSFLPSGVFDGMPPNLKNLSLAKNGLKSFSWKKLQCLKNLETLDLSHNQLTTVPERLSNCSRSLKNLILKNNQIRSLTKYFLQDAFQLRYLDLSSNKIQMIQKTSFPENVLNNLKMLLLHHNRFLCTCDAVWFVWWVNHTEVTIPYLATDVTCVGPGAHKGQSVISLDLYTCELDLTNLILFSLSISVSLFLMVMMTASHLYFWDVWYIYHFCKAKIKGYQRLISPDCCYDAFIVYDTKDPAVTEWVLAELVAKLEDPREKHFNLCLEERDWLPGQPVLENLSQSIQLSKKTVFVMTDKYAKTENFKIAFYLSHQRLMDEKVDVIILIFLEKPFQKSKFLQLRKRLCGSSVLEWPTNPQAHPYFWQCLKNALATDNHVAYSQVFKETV
In short: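 Human PBMCs (100,000 cells/well) preincubated 1 h at 37 °C with antagonist in 10-point dose response, then stimulated with TLR7 agonist for a further 6 h at 37 °C, 5% CO2. Supernatant IL-6 and IFNα measured by electrochemiluminescence immunoassay.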

[3] = human PBMCs, read-out: TLR-8 EC50
[4] = human PBMCs, read-out: TLR-7 EC50

Sequence of TLR8 (Q9NR97 27-1041): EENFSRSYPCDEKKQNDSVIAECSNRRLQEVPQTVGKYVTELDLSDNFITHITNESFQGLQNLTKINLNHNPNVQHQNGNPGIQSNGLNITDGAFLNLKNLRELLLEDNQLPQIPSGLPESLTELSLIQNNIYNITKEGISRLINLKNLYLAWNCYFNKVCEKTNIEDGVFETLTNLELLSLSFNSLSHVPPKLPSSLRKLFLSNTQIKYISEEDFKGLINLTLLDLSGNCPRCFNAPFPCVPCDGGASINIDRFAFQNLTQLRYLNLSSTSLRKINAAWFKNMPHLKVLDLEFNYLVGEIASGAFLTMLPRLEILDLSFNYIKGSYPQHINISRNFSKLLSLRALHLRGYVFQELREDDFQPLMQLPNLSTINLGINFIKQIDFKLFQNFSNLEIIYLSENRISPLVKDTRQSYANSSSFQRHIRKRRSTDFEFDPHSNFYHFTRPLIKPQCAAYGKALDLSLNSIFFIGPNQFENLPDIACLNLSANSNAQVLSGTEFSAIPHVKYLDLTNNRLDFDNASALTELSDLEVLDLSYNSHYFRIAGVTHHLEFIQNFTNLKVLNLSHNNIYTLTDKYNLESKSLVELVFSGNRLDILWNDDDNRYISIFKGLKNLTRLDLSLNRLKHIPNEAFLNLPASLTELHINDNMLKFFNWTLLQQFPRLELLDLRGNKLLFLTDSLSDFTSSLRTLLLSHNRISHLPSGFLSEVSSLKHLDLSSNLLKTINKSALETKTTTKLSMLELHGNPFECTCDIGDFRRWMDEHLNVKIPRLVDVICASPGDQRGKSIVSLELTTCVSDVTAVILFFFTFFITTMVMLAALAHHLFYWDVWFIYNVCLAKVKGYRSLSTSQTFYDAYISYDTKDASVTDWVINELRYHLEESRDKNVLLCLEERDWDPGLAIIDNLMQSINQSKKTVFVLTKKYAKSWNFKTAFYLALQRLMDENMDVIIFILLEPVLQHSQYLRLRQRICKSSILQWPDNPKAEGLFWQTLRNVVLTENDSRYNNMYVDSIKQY

## Cc1c(-c2[nH]c3sc([C@@H]4C[C@@H]5C[C@H]4CN5C4CC5(C4)CS(=O)(=O)C5)c(C)c3c2C(C)C)cn2ncnc2c1C [Example 169]
[1]; [3]
  EC50: 0.07 nM
[2]; [4]
  EC50: 0.29 nM

## Cc1cc(-c2[nH]c3sc(C4CCN(CC(N)=O)CC4)c(C(F)F)c3c2C(C)C)cn2ncnc12 [Example 162]
[1]; [3]
  EC50: 24.3 nM
[2]; [4]
  EC50: 3.41 nM

## Cc1c(C2C[C@@H]3C[C@H]2CN3CC(N)=O)sc2[nH]c(-c3cc(C)c4ncnn4c3)c(C(C)C)c12 (stereo partly drawn) [Example 66]
[1]; [3]
  EC50: 0.16 nM
[2]; [4]
  EC50: 0.12 nM

## Cc1c(-c2[nH]c3sc(C4CCN(C(=O)C5(N)COC5)CC4)c(C)c3c2C(C)C)cn2ncnc2c1C [Example 106]
[1]; [3]
  EC50: 49.3 nM
[2]; [4]
  EC50: 0.34 nM

## Cc1c(-c2[nH]c3sc(C4COC5(CCN(CC(N)=O)CC5)C4)c(C)c3c2C(C)C)cn2ncnc2c1C (single isomer, unassigned) [Example 88, 2-(3-(5-(7,8-dimethyl-[1,2,4]triazolo[1,5-a]pyridin-6-yl)-4-isopropyl-3-methyl-6H-thieno[2,3-b]pyrrol-2-yl)-1-oxa-8-azaspiro[4.5]decan-8-yl)acetamide]
[1]; [3]
  EC50: 23.8 nM
[2]; [4]
  EC50: 1.44 nM

## Cc1c(C2CCNCC2)sc2[nH]c(-c3cc(C)c4nccn4c3)c(C(C)C)c12 [Example 252]
[1]; [3]
  EC50: 34.2 nM
[2]; [4]
  EC50: 0.07 nM

## Cc1c(C2CCN(C(=O)[C@H]3CCCN3C)CC2)sc2[nH]c(-c3cc(C)c4ncnn4c3)c(C(C)C)c12 [Example 18]
[1]; [3]
  EC50: 10.9 nM
[2]; [4]
  EC50: 0.05 nM

## Cc1c(-c2[nH]c3sc(-c4cccc(C5CCNCC5)c4)c(C)c3c2C(C)C)cn2ncnc2c1C [Example 222]
[1]; [3]
  EC50: 79.3 nM
[2]; [4]
  EC50: 8.47 nM

## Cc1c(-c2[nH]c3sc(C4C[C@H]5CC[C@@H]4N5)c(C)c3c2C(C)C)cn2ncnc2c1C (stereo partly drawn) [Example 225]
[1]; TLR-8 EC50, human PBMCs
  EC50: 6.12 nM
[2]; TLR-7 EC50, human PBMCs
  EC50: 0.47 nM

## CNS(=O)(=O)CCN1C[C@@H]2C[C@H]1C[C@H]2c1sc2[nH]c(-c3cn4ncnc4c(C)c3C)c(C(C)C)c2c1C [Example 182]
[1]; [3]
  EC50: 0.32 nM
[2]; [4]
  EC50: 0.07 nM

## Cc1c(C2CCN(C(=O)[C@@H]3CCCN3C)CC2)sc2[nH]c(-c3cc(C)c4ncnn4c3)c(C(C)C)c12 [Example 19]
[1]; [3]
  EC50: 7.76 nM
[2]; [4]
  EC50: 0.43 nM

## Cc1c(-c2[nH]c3sc(C4CCN(C(=O)[C@H]5CN6CCCC6CO5)CC4)c(C)c3c2C(C)C)cn2ncnc2c1C (stereo partly drawn) [Example 104]
[1]; [3]
  EC50: 2.49 nM
[2]; [4]
  EC50: 0.1 nM

## Cc1c(C(=O)N(C)C2CCN(CCO)CC2)sc2[nH]c(-c3cc(C)c4ncnn4c3)c(C(C)C)c12 [Example 7, N-(1-(2-hydroxyethyl)piperidin-4-yl)-4-isopropyl-N,3-dimethyl-5-(8-methyl-[1,2,4]triazolo[1,5-a]pyridin-6-yl)-6H-thieno[2,3-b]pyrrole-2-carboxamide]
[1]; [3]
  EC50: 3.71 nM
[2]; [4]
  EC50: 0.14 nM

## Cc1c(-c2[nH]c3sc(C4CCC45CN(CC(N)=O)C5)c(C)c3c2C(C)C)cn2ncnc2c1C (single isomer, unassigned) [Example 316, 2-(5-(5-(7,8-dimethyl-[1,2,4]triazolo[1,5-a]pyridin-6-yl)-4-isopropyl-3-methyl-6H-thieno[2,3-b]pyrrol-2-yl)-2-azaspiro[3.3]heptan-2-yl)acetamide]
[1]; [3]
  EC50: 108 nM
[2]; [4]
  EC50: 47.3 nM

## Cc1c(C2CCC3(CC2)CN(C(=O)[C@@H]2CCCN2)C3)sc2[nH]c(-c3cc(C)c4ncnn4c3)c(C(C)C)c12 [Example 37]
[1]; [3]
  EC50: 9.95 nM
[2]; [4]
  EC50: 0.2 nM

## Cc1c(-c2[nH]c3sc(C4CCC5(CC4)CNCCO5)c(C)c3c2C(C)C)cn2ncnc2c1C (single isomer, unassigned) [Example 293, 9-(5-(7,8-dimethyl-[1,2,4]triazolo[1,5-a]pyridin-6-yl)-4 isopropyl-3-methyl-6H-thieno[2,3-b]pyrrol-2-yl)-1-oxa-4-azaspiro[5.5]undecane]
[1]; [3]
  EC50: 20.5 nM
[2]; [4]
  EC50: 1.67 nM

## Cc1c(-c2[nH]c3sc(C4CC5(CNCCO5)C4)c(C)c3c2C(C)C)cn2ncnc2c1C (single isomer, unassigned) [Example 90, 2-(5-(7,8-dimethyl-[1,2,4]triazolo[1,5-a]pyridin-6-yl)-4-isopropyl-3-methyl-6H-thieno[2,3-b]pyrrol-2-yl)-5-oxa-8-azaspiro[3.5]nonane]
[1]; [3]
  EC50: 6.79 nM
[2]; [4]
  EC50: 2.68 nM

## Cc1c(C2CCNCC2)sc2[nH]c(-c3cc(C)c4ncnn4c3)c(C(C)C)c12 [Example 8, 4-Isopropyl-3-methyl-5-(8-methyl-[1,2,4]triazolo[1,5-a]pyridin-6-yl)-2-(piperidin-4-yl)-6H-thieno[2,3-b]pyrrole]
[1]; [3]
  EC50: 4.92 nM
[2]; [4]
  EC50: 0.08 nM

## Cc1c(-c2[nH]c3sc(C4CC5(CCN(CCS(C)(=O)=O)C5)C4)c(C)c3c2C(C)C)cn2ncnc2c1C (single isomer, unassigned) [Example 313, 5-(7,8-dimethyl-[1,2,4]triazolo[1,5-a]pyridin-6-yl)-4-isopropyl-3-methyl-2-(6-(2-(methylsulfonyl)ethyl)-6-azaspiro[3.4]octan-2-yl)-6H-thieno[2,3-b]pyrrole]
[1]; [3]
  EC50: 1.19 nM
[2]; [4]
  EC50: 2.51 nM

## Cc1c(-c2[nH]c3sc(C4CCC(N5CC6(CCNC6=O)C5)CC4)c(C)c3c2C(C)C)cn2ncnc2c1C (single isomer, unassigned) [Example 305, 2-[4-[5-(7,8-dimethyl-[1,2,4]triazolo[1,5-a]pyridin-6-yl)-4-isopropyl-3-methyl-6H-thieno[2,3-b]pyrrol-2-yl]cyclohexyl]-2,6-diazaspiro[3.4]octan-5-one]
[1]; [3]
  EC50: 4.44 nM
[2]; [4]
  EC50: 0.78 nM

## CCNC(=O)CN1C[C@@H]2C[C@H]1C[C@H]2c1sc2[nH]c(-c3cn4ncnc4c(C)c3C)c(C(C)C)c2c1C [Example 186]
[1]; [3]
  EC50: 0.45 nM
[2]; [4]
  EC50: 0.66 nM

## Cc1c(C2CCN(C(=O)[C@@H]3C[C@H](F)CN3)CC2)sc2[nH]c(-c3cc(C)c4ncnn4c3)c(C(C)C)c12 [Example 118]
[1]; [3]
  EC50: 15.2 nM
[2]; [4]
  EC50: 0.24 nM

## Cc1c(-c2[nH]c3sc(C4CCN(C5CCNC5=O)CC4)c(C)c3c2C(C)C)cn2ncnc2c1C (single isomer, unassigned) [Example 291, 3-[4-[5-(7,8-dimethyl-[1,2,4]triazolo[1,5-a]pyridin-6-yl)-4-isopropyl-3-methyl-6H-thieno[2,3-b]pyrrol-2-yl]-1-piperidyl]pyrrolidin-2-one]
[1]; [3]
  EC50: 22.2 nM
[2]; [4]
  EC50: 0.6 nM

## Cc1c(-c2[nH]c3sc(C4CC5(CCN(CC(N)=O)C5)C4)c(C)c3c2C(C)C)cn2ncnc2c1C (single isomer, unassigned) [Example 86, 2-(2-(5-(7,8-dimethyl-[1,2,4]triazolo[1,5-a]pyridin-6-yl)-4-isopropyl-3-methyl-6H-thieno[2,3-b]pyrrol-2-yl)-6-azaspiro[3.4]octan-6-yl)acetamide]
[1]; [3]
  EC50: 0.98 nM
[2]; [4]
  EC50: 2.43 nM

## Cc1c(C2CCN(CC(N)=O)CC2)sc2[nH]c(-c3cc(C)c4ncnn4c3)c(C(C)C)c12 [Example 9, 2-(4-(4-isopropyl-3-methyl-5-(8-methyl-[1,2,4]triazolo[1,5-a]pyridin-6-yl)-6H-thieno[2,3-b]pyrrol-2-yl)piperidin-1-yl)acetamide]
[1]; [3]
  EC50: 17.1 nM
[2]; [4]
  EC50: 0.64 nM

## Cc1c(C2CC3COCC(C2)N3CCO)sc2[nH]c(-c3cc(C)c4ncnn4c3)c(C(C)C)c12 (stereo not drawn) [Example 33]
[1]; [3]
  EC50: 45.9 nM
[2]; [4]
  EC50: 7.19 nM

## Cc1c(C2CCN(C(=O)C34CC(F)(CN3)C4)CC2)sc2[nH]c(-c3cc(C)c4ncnn4c3)c(C(C)C)c12 [Example 41]
[1]; [3]
  EC50: 12.3 nM
[2]; [4]
  EC50: 0.35 nM

## Cc1c(C2CN(CC(N)=O)C2)sc2[nH]c(-c3cc(C)c4ncnn4c3)c(C(C)C)c12 [Example 64]
[1]; [3]
  EC50: 9.48 nM
[2]; [4]
  EC50: 3.12 nM

## Cc1c(-c2[nH]c3sc(C4CCN(C(=O)C56CCC(CN5)OC6)CC4)c(C)c3c2C(C)C)cn2ncnc2c1C (stereo not drawn) [Example 108]
[1]; [3]
  EC50: 4.77 nM
[2]; [4]
  EC50: 0.2 nM

## Cc1c(-c2[nH]c3sc([C@@H]4C[C@@H]5C[C@H]4CN5Cc4ccc(=O)[nH]c4)c(C)c3c2C(C)C)cn2ncnc2c1C [Example 178]
[1]; [3]
  EC50: 0.16 nM
[2]; [4]
  EC50: 0.06 nM

## Cc1c(-c2[nH]c3sc(C4CCC(N5CC6(CCO6)C5)CC4)c(C)c3c2C(C)C)cn2ncnc2c1C (stereo not drawn) [Example 300]
[1]; [3]
  EC50: 1.85 nM
[2]; [4]
  EC50: 0.22 nM

## Cc1c(C2CC3(CCCNC3)C2)sc2[nH]c(-c3cc(C)c4ncnn4c3)c(C(C)C)c12 (stereo not drawn) [Example 137]
[1]; [3]
  EC50: 1.71 nM
[2]; [4]
  EC50: 0.73 nM

## Cc1c(C2CCN(C(=O)[C@@H]3COCCN3C)CC2)sc2[nH]c(-c3cc(C)c4ncnn4c3)c(C(C)C)c12 [Example 49]
[1]; [3]
  EC50: 27.9 nM
[2]; [4]
  EC50: 1.12 nM

## Cc1c(-c2[nH]c3sc([C@H]4C[C@@H]5CC[C@H]4CN5CCS(C)(=O)=O)c(C)c3c2C(C)C)cn2ncnc2c1C (single isomer, unassigned) [Example 214]
[1]; [3]
  EC50: 3.4 nM
[2]; [4]
  EC50: 4.47 nM

## Cc1c(-c2[nH]c3sc(C4CCN(C(=O)[C@@H]5NCCO[C@H]5C)CC4)c(C)c3c2C(C)C)cn2ncnc2c1C [Example 281]
[1]; [3]
  EC50: 13.8 nM
[2]; [4]
  EC50: 2.17 nM

## Cc1c(-c2[nH]c3sc(-c4cnc(C5CCNCC5)nc4)c(C)c3c2C(C)C)cn2ncnc2c1C [Example 224]
[1]; [3]
  EC50: 3.68 nM
[2]; [4]
  EC50: 1.24 nM

## Cc1c(-c2[nH]c3sc(C4CC(n5cc(C6COCCN6)nn5)C4)c(C)c3c2C(C)C)cn2ncnc2c1C (single isomer, unassigned) [Example 245, 3-(1-(3-(5-(7,8-dimethyl-[1,2,4]triazolo[1,5-a]pyridin-6-yl)-4-isopropyl-3-methyl-6H-thieno[2,3-b]pyrrol-2-yl)cyclobutyl)-1H-1,2,3-triazol-4-yl)morpholine]
[1]; [3]
  EC50: 3.33 nM
[2]; [4]
  EC50: 0.17 nM

## Cc1c(-c2[nH]c3sc(C4C[C@@H]5CN[C@H]4C5)c(C)c3c2C(C)C)cn2ncnc2c1C (stereo partly drawn) [Example 112]
[1]; [3]
  EC50: 0.5 nM
[2]; [4]
  EC50: 0.07 nM

## Cc1c(-c2[nH]c3sc(C4CC5(CNC5)C4)c(C)c3c2C(C)C)cn2ncnc2c1C [Example 60]
[1]; [3]
  EC50: 0.93 nM
[2]; [4]
  EC50: 1.81 nM
